Source: patent US7566727B2, “2-(1-aza-bicyclo[2.2.2]oct-3-yl)-2,3-dihydro-isoindole-1-one/5,6-dihydro-furo[2,3-c] pyrrol-4-one derivative ligands for alpha 7 nicotinic acetylcholine receptor” (priority 2004, dated 2009)

Molecular target: α7 nAChR subtype (Rattus norvegicus, UniProt Q05941)
Test: Test A: 125I-α-Bungarotoxin binding to rat hippocampal membranes (affinity at α7 nAChR subtype)
Settings: for Ki: [125I]α-BTX displacement, rat hippocampal membranes
Description: Test A—Assay for Affinity at α7 nAChR subtype
125I-α-Bungarotoxin (BTX) binding to rat hippocampal membranes. Rat hippocampi were homogenized in 20 volumes of cold homogenization buffer (HB: concentrations of constituents (mM): tris(hydroxymethyl)aminomethane 50; MgCl2 1; NaCl 120; KCl 5: pH 7.4). The homogenate was centrifuged for 5 minutes at 1000 g, the supernatant was saved and the pellet re-extracted. The pooled supernatants were centrifuged for 20 minutes at 12,000 g, washed, and re-suspended in HB. Membranes (30-80 μg) were incubated with 5 nM [^125I] α-BTX, 1 mg/mL BSA (bovine serum albumin), test drug, and either 2 mM CaCl2 or 0.5 mM EGTA [ethylene glycol-bis(β-aminoethylether)] for 2 hours at 21° C., and then filtered and washed 4 times over Whatman glass fibre filters (thickness C) using a Brandel cell harvester.
Binding data analysis for Tests A and B
IC50 values and pseudo Hill coefficients (nH) were calculated using the non-linear curve fitting program ALLFIT (DeLean A, Munson P J and Rodbard D (1977) Am. J. Physiol., 235:E97-E102). […] Ki values were determined using 6 or more drug concentrations.

Sequence of α7 nAChR subtype (Q05941 23-502): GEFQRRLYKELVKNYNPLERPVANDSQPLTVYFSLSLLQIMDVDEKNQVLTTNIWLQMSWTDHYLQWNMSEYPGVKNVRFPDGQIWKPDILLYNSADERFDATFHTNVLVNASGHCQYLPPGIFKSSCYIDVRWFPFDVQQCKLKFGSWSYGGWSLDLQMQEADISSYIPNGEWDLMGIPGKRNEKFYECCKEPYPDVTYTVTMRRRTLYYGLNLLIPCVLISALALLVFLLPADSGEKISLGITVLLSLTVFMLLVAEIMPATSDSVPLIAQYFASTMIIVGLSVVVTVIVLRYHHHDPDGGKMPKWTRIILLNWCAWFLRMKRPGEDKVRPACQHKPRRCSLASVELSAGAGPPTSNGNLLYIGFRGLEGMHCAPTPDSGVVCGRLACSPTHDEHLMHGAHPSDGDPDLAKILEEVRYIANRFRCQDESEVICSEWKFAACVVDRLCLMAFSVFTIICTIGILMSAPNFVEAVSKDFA

Work on “125I-α-Bungarotoxin [[^125I]-α-BTX, reference compound]” yielded a Kd (read-out: KD of radioligand (saturation curve, one site model)) of 0.00167 µM.
For `COc1ccc(-c2ccc3c(c2)C(=O)N([C@H]2CN4CCC2CC4)C3)cc1` [Example 28, 2-(R)-1-Aza-bicyclo[2.2.2]oct-3-yl-6-(4-methoxy-phenyl)-2,3-dihydro-isoindol-1-one], the Ki was 0.077 µM.
`O=C1c2cc(Cl)ccc2CN1[C@H]1CN2CCC1CC2` [Example 29, 2-(R)-1-Aza-bicyclo[2.2.2]oct-3-yl-6-chloro-2,3-dihydro-isoindol-1-one] showed a Ki of 0.289 µM.
Work on `COc1cccc(-c2ccc3c(c2)C(=O)N([C@H]2CN4CCC2CC4)C3)c1` [Example 30, 2-(R)-1-Aza-bicyclo[2.2.2]oct-3-yl-6-(3-methoxy-phenyl)-2,3-dihydro-isoindol-1-one] yielded a Ki of 0.0218 µM.
`O=C1c2cc(-c3cccc(Cl)c3)ccc2CN1[C@H]1CN2CCC1CC2` [Example 31, 2-(R)-1-Aza-bicyclo[2.2.2]oct-3-yl-6-(3-chloro-phenyl)-2,3-dihydro-isoindol-1-one] showed a Ki of 0.0454 µM.
`O=C1c2cc(-c3ccc(Cl)cc3)ccc2CN1[C@H]1CN2CCC1CC2` [Example 32, 2-(R)-1-Aza-bicyclo[2.2.2]oct-3-yl-6-(4-chloro-phenyl)-2,3-dihydro-isoindol-1-one] showed a Ki of 0.09 µM.
Work on `O=C1c2cc(-c3cccc4cccnc34)ccc2CN1[C@H]1CN2CCC1CC2` [Example 33, 2-(R)-1-Aza-bicyclo[2.2.2]oct-3-yl-6-quinolin-8-yl-2,3-dihydro-isoindol-1-one] yielded a Ki of 0.09 µM.
For `O=C1c2cc(-c3ccc4c(c3)OCO4)ccc2CN1[C@H]1CN2CCC1CC2` [Example 34, 2-(R)-1-Aza-bicyclo[2.2.2]oct-3-yl-6-benzo[1,3]dioxol-5-yl-2,3-dihydro-isoindol-1-one], the Ki was 0.037 µM.
Work on `O=C1c2cc(-c3ccccc3Cl)ccc2CN1[C@H]1CN2CCC1CC2` [Example 35, 2-(R)-1-Aza-bicyclo[2.2.2]oct-3-yl-6-(2-chloro-phenyl)-2,3-dihydro-isoindol-1-one] yielded a Ki of 0.0063 µM.
For `COc1ccccc1-c1ccc2c(c1)C(=O)N([C@H]1CN3CCC1CC3)C2` [Example 36, 2-(R)-1-Aza-bicyclo[2.2.2]oct-3-yl-6-(2-methoxy-phenyl)-2,3-dihydro-isoindol-1-one], the Ki was 0.024 µM.
Work on `CC(=O)Nc1cccc(-c2ccc3c(c2)C(=O)N([C@H]2CN4CCC2CC4)C3)c1` [Example 37, N-[3-((R)-2-1-Aza-bicyclo[2.2.2]oct-3-yl-3-oxo-2,3-dihydro-1H-isoindol-5-yl)-phenyl]-acetamide] yielded a Ki of 0.007 µM.
`CN1CCN(c2ccc3c(c2)C(=O)N([C@H]2CN4CCC2CC4)C3)CC1` [Example 38, 2-(R)-1-Aza-bicyclo[2.2.2]oct-3-yl-6-(4-methyl-piperazin-1-yl)-2,3-dihydro-isoindol-1-one] was tested, and the Ki was 0.424 µM.
Work on `O=C1c2cc(N3CCOCC3)ccc2CN1[C@H]1CN2CCC1CC2` [Example 39, 2-(R)-1-Aza-bicyclo[2.2.2]oct-3-yl-6-morpholin-4-yl-2,3-dihydro-isoindol-1-one] yielded a Ki of 0.421 µM.
`CN(C)C(=O)c1ccc(-c2ccc3c(c2)C(=O)N([C@H]2CN4CCC2CC4)C3)cc1` [Example 40, 4-((R)-2-1-Aza-bicyclo[2.2.2]oct-3-yl-3-oxo-2,3-dihydro-1H-isoindol-5-yl)-N,N-dimethyl-benzamide] showed a Ki of 0.353 µM.
Work on `O=C1c2cc(-c3ccc4ncccc4c3)ccc2CN1[C@H]1CN2CCC1CC2` [Example 41, 2-(R)-1-Aza-bicyclo[2.2.2]oct-3-yl-6-quinolin-6-yl-2,3-dihydro-isoindol-1-one] yielded a Ki of 0.329 µM.
Work on `O=C1c2cc(-c3cccc4ncccc34)ccc2CN1[C@H]1CN2CCC1CC2` [Example 42, 2-(R)-1-Aza-bicyclo[2.2.2]oct-3-yl-6-quinolin-5-yl-2,3-dihydro-isoindol-1-one] yielded a Ki of 0.0896 µM.
Work on `CS(=O)(=O)c1cccc(-c2ccc3c(c2)C(=O)N([C@H]2CN4CCC2CC4)C3)c1` [Example 43, 2-(R)-1-Aza-bicyclo[2.2.2]oct-3-yl-6-(3-methanesulfonyl-phenyl)-2,3-dihydro-isoindol-1-one] yielded a Ki of 0.094 µM.
Work on `CS(=O)(=O)c1ccc(-c2ccc3c(c2)C(=O)N([C@H]2CN4CCC2CC4)C3)cc1` [Example 44, 2-(R)-1-Aza-bicyclo[2.2.2]oct-3-yl-6-(4-methanesulfonyl-phenyl)-2,3-dihydro-isoindol-1-one] yielded a Ki of 0.321 µM.
Work on `O=C1c2cc(-c3cnc4ccccc4c3)ccc2CN1[C@H]1CN2CCC1CC2` [Example 45, 2-(R)-1-Aza-bicyclo[2.2.2]oct-3-yl-6-quinolin-3-yl-2,3-dihydro-isoindol-1-one] yielded a Ki of 0.0668 µM.
`COc1ccc(-c2ccc3c(c2)C(=O)N([C@H]2CN4CCC2CC4)C3)cn1` [Example 46, 2-(R)-1-Aza-bicyclo[2.2.2]oct-3-yl-6-(6-methoxy-pyridin-3-yl)-2,3-dihydro-isoindol-1-one] was tested, and the Ki was 0.29 µM.
`O=C1c2cc(-c3cccc4cnccc34)ccc2CN1[C@H]1CN2CCC1CC2` [Example 47, 2-(R)-1-Aza-bicyclo[2.2.2]oct-3-yl-6-isoquinolin-5-yl-2,3-dihydro-isoindol-1-one] gave a Ki of 0.032 µM.
Compound `O=C1c2cc(-c3cncc4ccccc34)ccc2CN1[C@H]1CN2CCC1CC2` [Example 48, 2-(R)-1-Aza-bicyclo[2.2.2]oct-3-yl-6-isoquinolin-4-yl-2,3-dihydro-isoindol-1-one] has a Ki of 0.112 µM.
In the case of `CC(=O)Nc1ccc(-c2ccc3c(c2)C(=O)N([C@H]2CN4CCC2CC4)C3)cc1` [Example 49, N-[4-((R)-2-1-Aza-bicyclo[2.2.2]oct-3-yl-3-oxo-2,3-dihydro-1H-isoindol-5-yl)-phenyl]-acetamide], the Ki is reported as 0.0032 µM.
Compound `Cn1cc(-c2ccc3c(c2)C(=O)N([C@H]2CN4CCC2CC4)C3)cn1` [Example 50, 2-(R)-1-Aza-bicyclo[2.2.2]oct-3-yl-6-(1-methyl-1H-pyrazol-4-yl)-2,3-dihydro-isoindol-1-one] has a Ki of 0.061 µM.
Work on `O=C1c2cc(-c3cnn(Cc4ccccc4)c3)ccc2CN1[C@H]1CN2CCC1CC2` [Example 51, 2-(R)-1-Aza-bicyclo[2.2.2]oct-3-yl-6-(1-benzyl-1H-pyrazol-4-yl)-2,3-dihydro-isoindol-1-one] yielded a Ki of 0.146 µM.
`CN(C)C(=O)c1cccc(-c2ccc3c(c2)C(=O)N([C@H]2CN4CCC2CC4)C3)c1` [Example 52, 3-((R)-2-1-Aza-bicyclo[2.2.2]oct-3-yl-3-oxo-2,3-dihydro-1H-isoindol-5-yl)-N,N-dimethyl-benzamide] showed a Ki of 0.031 µM.
In the case of `CCNC(=O)c1ccc(-c2ccc3c(c2)C(=O)N([C@H]2CN4CCC2CC4)C3)cc1` [Example 53, 4-((R)-2-1-Aza-bicyclo[2.2.2]oct-3-yl-3-oxo-2,3-dihydro-1H-isoindol-5-yl)-N-ethyl-benzamide], the Ki is reported as 0.348 µM.
`COc1cc(OC)cc(-c2ccc3c(c2)C(=O)N([C@H]2CN4CCC2CC4)C3)c1` [Example 54, 2-(R)-1-Aza-bicyclo[2.2.2]oct-3-yl-6-(3,5-dimethoxy-phenyl)-2,3-dihydro-isoindol-1-one] gave a Ki of 0.669 µM.
`NC(=O)c1cccc(-c2ccc3c(c2)C(=O)N([C@H]2CN4CCC2CC4)C3)c1` [Example 55, 3-((R)-2-1-Aza-bicyclo[2.2.2]oct-3-yl-3-oxo-2,3-dihydro-1H-isoindol-5-yl)-benzamide] showed a Ki of 0.017 µM.
For `O=C(NCc1ccccc1)c1ccc(-c2ccc3c(c2)C(=O)N([C@H]2CN4CCC2CC4)C3)cc1` [Example 56, 4-((R)-2-1-Aza-bicyclo[2.2.2]oct-3-yl-3-oxo-2,3-dihydro-1H-isoindol-5-yl)-N-benzyl-benzamide], the Ki was 0.1 µM.
`Nc1cccc(-c2ccc3c(c2)C(=O)N([C@H]2CN4CCC2CC4)C3)c1` [Example 57, 6-(3-Amino-phenyl)-2-(R)-1-aza-bicyclo[2.2.2]oct-3-yl-2,3-dihydro-isoindol-1-one] gave a Ki of 0.0064 µM.
With `CCC(=O)Nc1cccc(-c2ccc3c(c2)C(=O)N([C@H]2CN4CCC2CC4)C3)c1` [Example 58, N-[3-((R)-2-1-Aza-bicyclo[2.2.2]oct-3-yl-3-oxo-2,3-dihydro-1H-isoindol-5-yl)-phenyl]-propionamide] the Ki was 0.0017 µM.
With `COc1cncc(-c2ccc3c(c2)C(=O)N([C@H]2CN4CCC2CC4)C3)c1` [Example 59, 2-(R)-1-Aza-bicyclo[2.2.2]oct-3-yl-6-(5-methoxy-pyridin-3-yl)-2,3-dihydro-isoindol-1-one] the Ki was 0.383 µM.
With `O=C1c2cc(-c3ccc4c(c3)OCCO4)ccc2CN1[C@H]1CN2CCC1CC2` [Example 60, 2-(R)-1-Aza-bicyclo[2.2.2]oct-3-yl-6-(2,3-dihydro-benzo[1,4]dioxin-6-yl)-2,3-dihydro-isoindol-1-one] the Ki was 0.028 µM.
Work on `CC(C)Oc1cccc(-c2ccc3c(c2)C(=O)N([C@H]2CN4CCC2CC4)C3)c1` [Example 61, 2-(R)-1-Aza-bicyclo[2.2.2]oct-3-yl-6-(3-isopropoxy-phenyl)-2,3-dihydro-isoindol-1-one] yielded a Ki of 0.014 µM.
In the case of `O=C1c2cc(-c3cccc(OC(F)(F)F)c3)ccc2CN1[C@H]1CN2CCC1CC2` [Example 62, 2-(R)-1-Aza-bicyclo[2.2.2]oct-3-yl-6-(3-trifluoromethoxy-phenyl)-2,3-dihydro-isoindol-1-one], the Ki is reported as 0.048 µM.
`O=C(Nc1cccc(-c2ccc3c(c2)C(=O)N([C@H]2CN4CCC2CC4)C3)c1)c1ccccc1` [Example 64, N-[3-((R)-2-1-Aza-bicyclo[2.2.2]oct-3-yl-3-oxo-2,3-dihydro-1H-isoindol-5-yl)-phenyl]-benzamide] showed a Ki of 0.0039 µM.
